In patent US20250221966A1, “RXFP1 AGONISTS” (BRISTOL-MYERS SQUIBB COMPANY, priority 2021, published 2025) one finds EC50 data, which are given here for 41 molecules.

Molecules are shown by their SMILES.

The target in this assay is T1, human RXFP1 (Homo sapiens, UniProt Q9HBX9).
T1 construct: expressed in transfected cells
T1 sequence (Q9HBX9 1-757): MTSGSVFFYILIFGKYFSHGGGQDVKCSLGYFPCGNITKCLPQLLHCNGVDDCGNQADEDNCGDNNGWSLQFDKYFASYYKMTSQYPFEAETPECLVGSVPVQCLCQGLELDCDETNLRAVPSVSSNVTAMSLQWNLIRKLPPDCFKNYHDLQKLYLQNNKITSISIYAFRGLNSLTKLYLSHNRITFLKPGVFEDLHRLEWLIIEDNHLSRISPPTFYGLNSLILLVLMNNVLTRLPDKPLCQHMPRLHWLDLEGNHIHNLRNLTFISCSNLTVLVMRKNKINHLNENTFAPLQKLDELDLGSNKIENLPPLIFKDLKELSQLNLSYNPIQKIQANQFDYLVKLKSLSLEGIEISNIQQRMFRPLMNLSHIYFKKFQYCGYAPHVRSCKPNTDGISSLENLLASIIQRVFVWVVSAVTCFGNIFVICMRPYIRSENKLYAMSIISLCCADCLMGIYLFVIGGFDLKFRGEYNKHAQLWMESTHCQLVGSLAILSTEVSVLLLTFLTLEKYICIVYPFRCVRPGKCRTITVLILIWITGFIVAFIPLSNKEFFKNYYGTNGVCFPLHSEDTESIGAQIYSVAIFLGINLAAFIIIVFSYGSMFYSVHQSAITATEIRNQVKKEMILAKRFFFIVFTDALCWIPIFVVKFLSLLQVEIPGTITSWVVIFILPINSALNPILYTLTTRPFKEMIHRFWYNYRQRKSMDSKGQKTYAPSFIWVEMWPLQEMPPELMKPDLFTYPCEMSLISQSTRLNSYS
As to the kind of experiment: RXFP1 cAMP assay (hRXFP1 HEK293 cAMP assay, HTRF). The class given is cell-based. Conditions: HEK293 cells stably expressing human RXFP1, 30 min at room temperature, read-out: cAMP hRXFP1 HEK293 Assay EC50. In short, it runs like this: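 Potency and activity come from a four-parameter logistic fit of cAMP against compound concentration, tested from 0.010 nM up to 50 μM. The assay uses HEK293 cells stably expressing human RXFP1, incubated 30 min at ambient temperature with phosphodiesterase inhibitor IBMX present.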
A general note: Cyclic AMP is a second messenger, typically raised through Gs and lowered through Gi signalling.

The term EC50 denotes the concentration that produces a half-maximal response. As to `COCCCOc1c(F)cc(C2=NOC3COCC23)cc1C(=O)N[C@H]1[C@@H](C(=O)Nc2ccc(F)c(C(F)(F)F)c2)[C@H]2CC[C@@H]1/C2=C\C1CC1` (some centres unmarked) [compound 778], the EC50 came out at 0.0011 µM.

`COc1ccc(-c2cc(-c3nnn[nH]3)ccc2F)cc1C(=O)N[C@@H]1C2CCC(C2=C(C)C)[C@@H]1C(=O)Nc1ccc(F)c(C(F)(F)F)c1` (some centres unmarked) [Example 108]: the EC50 turned out to be 0.33 µM.

Take `COc1cc(C)c(C2=NOC3CC(CO)CC23)cc1C(=O)N[C@H]1[C@@H](C(=O)Nc2ccc(F)c(C(F)(F)F)c2)[C@H]2CC[C@@H]1/C2=C\C1CC1` (some centres unmarked) [compound 740]: the EC50 came out at 0.0034 µM.

In the case of `COc1ccc(-c2cc(C(NC(=O)C3CCOCC3)C(=O)O)ccc2F)cc1C(=O)N[C@H]1[C@@H](C(=O)Nc2ccc(F)c(C(F)(F)F)c2)[C@H]2CC[C@@H]1/C2=C\C(C)C` (some centres unmarked) [compound 942], the EC50 was found to be 0.0013 µM.

`COc1cc(F)c(F)cc1C(=O)N[C@@H]1C2CCC(/C2=C/c2cccc(Cl)c2)[C@@H]1C(=O)Nc1ccc(F)c(C(F)(F)F)c1` (some centres unmarked) [compound 17]: the EC50 is 0.12 µM.

In the case of `COc1ccc(C2CCCN2CC(C)(C)O)cc1C(=O)N[C@@H]1C2CCC(C2=CC2CC2)[C@@H]1C(=O)Nc1ccc(F)c(C(F)(F)F)c1` (some centres unmarked) [compound 607], the EC50 was determined as 0.128 µM.

As to `CCC/C=C/C=C1\C2CCC1[C@H](C(=O)Nc1ccc(F)c(C(F)(F)F)c1)[C@@H]2NC(=O)c1cc(F)c(F)cc1OC` (some centres unmarked) [compound 45], the EC50 is 0.059 µM.

With `COc1ccc(C2=NOC(C(=O)O)C2)cc1C(=O)N[C@@H]1C2CCC(/C2=C/C2CCC2)[C@@H]1C(=O)Nc1ccc(F)c(C(F)(F)F)c1` (some centres unmarked) [compound 388], the EC50 stood at 0.152 µM.

Take `COc1ccc(C2=NOC(C(C)(O)C(F)(F)F)C2)cc1C(=O)N[C@H]1[C@@H](C(=O)Nc2ccc(F)c(C(F)(F)F)c2)[C@H]2CC[C@@H]1/C2=C\C1CC1` (single isomer, unassigned) [compound 682]: the EC50 amounted to 0.612 µM.

Regarding `COC(=O)NC(C(=O)O)c1ccc(F)c(-c2ccc(OC)c(C(=O)N[C@@H]3C4CCC(/C4=C/C(F)(F)F)[C@@H]3C(=O)Nc3ccc(F)c(C(F)(F)F)c3)c2)c1` (some centres unmarked) [compound 186], the EC50 turned out to be 0.025 µM.

In the case of `COc1ccc(C2=NO[C@H]3CC(CO)C[C@@H]23)cc1C(=O)N[C@H]1[C@@H](C(=O)Nc2ccc(F)c(C(F)(F)F)c2)[C@H]2CC[C@@H]1/C2=C\CC(C)(C)C` (some centres unmarked) [compound 841], the EC50 came out at 0.0047 µM.

For `COc1ccc(-c2cc([C@H](OC(=O)NC3CCC3)C(F)(F)F)ccc2F)cc1C(=O)N[C@@H]1C2CCC(/C2=C/C2CCC2)[C@@H]1C(=O)Nc1ccc(F)c(C(F)(F)F)c1` (some centres unmarked) [compound 924], the EC50 is 0.0057 µM.

In the case of `O=C(N[C@H]1[C@@H](C(=O)Nc2ccc(F)c(C(F)(F)F)c2)[C@H]2CC[C@@H]1/C2=C\C1CC1)c1cc(C2=NOC3CC(CO)CC23)ccc1OCC(F)F` (some centres unmarked) [compound 783], the EC50 is 0.0034 µM.

As for `COc1ccc(C2=NOC(CO)C2CO)cc1C(=O)N[C@H]1[C@@H](C(=O)Nc2ccc(F)c(C(F)(F)F)c2)[C@H]2CC[C@@H]1/C2=C\C1CC1` (single isomer, unassigned) [compound 481], the EC50 was 0.0067 µM.

Take `COc1ccc(-c2ccc(C(=O)O)cc2)cc1C(=O)N[C@@H]1C2CCC(/C2=C/C2CC2)[C@@H]1C(=O)Nc1ccc(F)c(C(F)(F)F)c1` (some centres unmarked) [compound 167]: the EC50 is 0.016 µM.

Turning to `O=C(N[C@H]1[C@@H](C(=O)Nc2ccc(F)c(C(F)(F)F)c2)[C@H]2CC[C@@H]1/C2=C\C1CC1)c1cc(C2=NOC3COCC23)ccc1OCCCF` (some centres unmarked) [compound 786], the concentration for a half-maximal effect (EC50) turned out to be 0.004 µM.

Consider `COc1cc(F)c(F)cc1C(=O)N[C@@H]1C2CCC(/C2=C/c2cc(C)cc(C)c2)[C@@H]1C(=O)Nc1ccc(F)c(C(F)(F)F)c1` (some centres unmarked) [compound 60], for which the EC50 stood at 0.92 µM.

For `COc1ccc(-c2cc(C(=O)O)ccc2F)cc1C(=O)N[C@@H]1C2CCC(/C2=C/C2CC2)[C@@H]1C(=O)N[C@@H](C)c1ccccc1C(F)(F)F` (some centres unmarked) [compound 262], the EC50 was 0.139 µM.

With `COc1ccc(C2CCN(CC(C)(C)O)C2)cc1C(=O)N[C@@H]1C2CCC(C2=CC2CC2)[C@@H]1C(=O)Nc1ccc(F)c(C(F)(F)F)c1` (some centres unmarked) [compound 568], the EC50 was determined as 0.0594 µM.

Consider `COc1ccc(C2=NOC3COCC23)cc1C(=O)N[C@H]1[C@@H](C(=O)NCc2c(C)noc2C)[C@H]2CC[C@@H]1/C2=C\C1CC1` (some centres unmarked) [compound 673], for which the EC50 was determined as 0.477 µM.

On to `COc1ccc(-c2cnc(C)nc2)cc1C(=O)N[C@H]1[C@@H](C(=O)Nc2ccc(F)c(C(F)(F)F)c2)[C@H]2CC[C@@H]1C2=C(C)C` [compound 98], for which the EC50 came out at 0.51 µM.

Turning to `COc1ccc(C2=NO[C@H]3[C@@H]2CC[C@@H]3O)cc1C(=O)N[C@H]1[C@@H](C(=O)Nc2ccc(F)c(C(F)(F)F)c2)[C@H]2CC[C@@H]1/C2=C\C1CC1` (single isomer, unassigned) [compound 574], the 50% effective concentration (EC50) turned out to be 0.0678 µM.

Regarding `COc1c(F)cc(C2=NOC3CC(CO)CC23)cc1C(=O)N[C@H]1[C@@H](C(=O)N[C@H](C)C2(C)CC2)[C@H]2CC[C@@H]1/C2=C\CCC(F)(F)F` (some centres unmarked) [compound 834], the concentration giving a half-maximal response (EC50) is 0.0038 µM.

Turning to `COc1cc(F)c(F)cc1C(=O)N[C@@H]1C2CCC(/C2=C/c2ccco2)[C@@H]1C(=O)Nc1ccc(F)c(C(F)(F)F)c1` (some centres unmarked) [compound 123], the EC50 was 0.21 µM.

For the molecule `C=C/C=C1\C2CCC1[C@H](C(=O)Nc1ccc(F)c(C(F)(F)F)c1)[C@@H]2NC(=O)c1cc(-c2cc(C(=O)NS(C)(=O)=O)ccc2F)ccc1OC` (some centres unmarked) [compound 162], the concentration for a half-maximal effect (EC50) was found to be 0.04 µM.

Consider `COc1cc(F)c(F)cc1C(=O)N[C@@H]1C2CCC(/C2=C/C(=O)Nc2ccccc2)[C@@H]1C(=O)Nc1ccc(F)c(C(F)(F)F)c1` (some centres unmarked) [Example 34], for which the EC50 came out at 4.6 µM.

As to `O=C(N[C@H]1[C@@H](C(=O)Nc2ccc(F)c(C(F)(F)F)c2)[C@H]2CC[C@@H]1/C2=C\C1CC1)c1cc(C2=NOC3CC(CO)CC23)ccc1F` (single isomer, unassigned) [compound 692], the EC50 was found to be 0.789 µM.

As to `COc1cc(F)c(F)cc1C(=O)N[C@@H]1[C@@H]2CCC(/C2=C/c2ccoc2)[C@@H]1C(=O)Nc1ccc(F)c(C(F)(F)F)c1` [Example 12], the EC50 is 0.41 µM.

Take `COc1ccc(C2CC3CN(C(=O)OC(C)(C)C)CC32)cc1C(=O)N[C@H]1[C@@H](C(=O)Nc2ccc(F)c(C(F)(F)F)c2)[C@H]2CC[C@@H]1/C2=C\C1CC1` (single isomer, unassigned) [compound 730]: the EC50 was 0.263 µM.

Regarding `CNC(=O)OC(c1ccc(F)c(-c2ccc(OC)c(C(=O)N[C@@H]3C4CCC(/C4=C/C4CC4)[C@@H]3C(=O)Nc3ccc(F)c(C(F)(F)F)c3)c2)c1)C(F)(F)F` (some centres unmarked) [compound 217], the EC50 was 0.002 µM.

On to `COc1ccc(C2=NOC3CC(CO)CC23)cc1C(=O)N[C@H]1[C@@H](C(=O)Nc2ccc(F)c(C(F)(F)F)c2)[C@H]2CC[C@@H]1C2CC1CCC1` (some centres unmarked) [compound 523], for which the EC50 worked out at 0.0213 µM.

On to `COCC1(CNC(=O)[C@@H]2[C@H](NC(=O)c3cc(C4=NOC5COCC45)ccc3OC)[C@@H]3CC[C@H]2/C3=C/C2CC2)CC1` (some centres unmarked) [compound 701], for which the EC50 was 1.09 µM.

Turning to `COc1ccc(C2=NOC3COCC23)cc1C(=O)N[C@H]1[C@@H](C(=O)NCC2CC2)[C@H]2CC[C@@H]1/C2=C\C1CC1` (some centres unmarked) [compound 684], the EC50 stood at 0.642 µM.

`COc1ccc(C2=NOC3COCC23)cc1C(=O)N[C@H]1[C@@H](C(=O)NC2(CO)CCCC2)[C@H]2CC[C@@H]1/C2=C\C1CC1` (some centres unmarked) [compound 651]: the EC50 is 0.269 µM.

On to `COc1ccc(C2=NOC3COCC23)cc1C(=O)N[C@H]1[C@@H](C(=O)N[C@@H](C)C2(C)CC2)[C@H]2CC[C@@H]1/C2=C\C1CC1` (some centres unmarked) [compound 609], for which the EC50 was determined as 0.13 µM.

In the case of `C=C/C=C1\C2CCC1[C@H](C(=O)Nc1ccc(F)c(C(F)(F)F)c1)[C@@H]2NC(=O)c1cc(-c2cc(C(=O)NC)ccc2F)ccc1OC` (some centres unmarked) [compound 164], the EC50 was found to be 0.014 µM.

As for `COc1c(F)cc(C2=NOC3CC(CO)CC23)cc1C(=O)N[C@H]1[C@@H](C(=O)Nc2ccc(F)c(C(F)(F)F)c2)[C@H]2CC[C@@H]1/C2=C\CC(O)C(F)(F)F` (some centres unmarked) [compound 836], the EC50 turned out to be 0.0041 µM.

Regarding `COC(=O)N1CC=C(c2ccc(OC)c(C(=O)N[C@@H]3C4CCC(C4=C(C)C)[C@@H]3C(=O)Nc3ccc(F)c(C(F)(F)F)c3)c2)CC1` (some centres unmarked) [compound 143], the EC50 amounted to 2.8 µM.

On to `COc1cc(F)c(F)cc1C(=O)N[C@@H]1C2CCC(/C2=C/c2cccc(Oc3ccccc3)c2)[C@@H]1C(=O)Nc1ccc(F)c(C(F)(F)F)c1` (some centres unmarked) [compound 46], for which the 50% effective concentration (EC50) came to 0.12 µM.

With `COc1c(C)cc(C2=NOC3CC(CO)CC23)cc1C(=O)N[C@H]1[C@@H](C(=O)Nc2ccc(F)c(C(F)(F)F)c2)[C@H]2CC[C@@H]1/C2=C\C1CC1` (some centres unmarked) [compound 797], the EC50 amounted to 0.0041 µM.

In the case of `COc1ccc(C2=NOC3COCC23)cc1C(=O)N[C@H]1[C@@H](C(=O)N[C@H](C)C2(C)CC2)[C@H]2CC[C@@H]1/C2=C\C1CC1` (some centres unmarked) [Example 447], the EC50 turned out to be 0.0008 µM.
